Reference: BindingDB's records for patent US20230312550 (Astrazeneca, 2023)

Target: T1, Prolyl endopeptidase FAP (Homo sapiens, UniProt Q12884)
T1 sequence (Q12884 whole entry): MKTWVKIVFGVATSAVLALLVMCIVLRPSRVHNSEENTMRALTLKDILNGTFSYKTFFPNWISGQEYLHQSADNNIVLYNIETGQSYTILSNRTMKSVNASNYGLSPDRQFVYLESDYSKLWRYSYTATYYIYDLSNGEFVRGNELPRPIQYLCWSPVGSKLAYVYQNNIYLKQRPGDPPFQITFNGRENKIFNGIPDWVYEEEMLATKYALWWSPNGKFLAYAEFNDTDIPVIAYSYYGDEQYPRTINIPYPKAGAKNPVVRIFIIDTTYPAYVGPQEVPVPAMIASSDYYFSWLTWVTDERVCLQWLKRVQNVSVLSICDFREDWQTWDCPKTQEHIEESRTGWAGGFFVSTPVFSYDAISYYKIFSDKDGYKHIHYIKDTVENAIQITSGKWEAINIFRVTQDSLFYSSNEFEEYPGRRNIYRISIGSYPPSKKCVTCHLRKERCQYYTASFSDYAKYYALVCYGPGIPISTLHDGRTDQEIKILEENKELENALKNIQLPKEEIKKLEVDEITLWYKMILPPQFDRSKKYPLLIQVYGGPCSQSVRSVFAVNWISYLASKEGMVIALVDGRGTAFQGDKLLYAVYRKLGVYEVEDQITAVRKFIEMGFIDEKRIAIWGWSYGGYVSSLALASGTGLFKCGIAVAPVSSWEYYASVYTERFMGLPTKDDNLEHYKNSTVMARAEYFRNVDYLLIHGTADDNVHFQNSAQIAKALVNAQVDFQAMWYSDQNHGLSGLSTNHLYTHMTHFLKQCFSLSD
Experiment: hFAP Binding Assay
Conditions: for kon: read-out: kon (M-1-s-1)
Protocol: Table 1: Compounds were tested in a direct binding assay using 8K surface plasmon resonance biosensor (GE Healthcare) at 20° C. Immobilization of hFAP (M39-A757) on a CMD200M sensor chip (Xantec) was performed using standard amine coupling procedure in immobilization buffer (10 mM HEPES, 150 mM NaCl, 0.05% Tween20, pH 7.4). The surface was washed with 10 mM NaOH, 1M NaCl before being activated with EDC/NHS (GE Healthcare), followed by immobilization of hFAP (in 10 mM Acetate pH 5.0). Finally, the surface was deactivated by ethanolamine. Immobilization levels of hFAP were around 4000-6000 RU. The reference spot was treated as described, omitting the injection of hFAP. Compound concentration series were injected over the immobilized protein in increasing concentrations (2-500 nM) using single cycle kinetics in running buffer (20 mM TRIS, 150 mM NaCl, 0.05% Tween20, 1% DMSO, pH 7.4).

`N#C[C@@H]1CSCN1C(=O)CNC(=O)c1ccnc2ccc(N3C[C@@H]4CCC[C@@H]43)cc12` (mixture of isomers) [US20230312550, Example 156] gave a koff of 6.6e-05 s⁻¹ and a kon of 1.2e+06 M⁻¹ s⁻¹.

With `N#C[C@@H]1CSCN1C(=O)CNC(=O)c1ccnc2ccc(N3C[C@@H]4CC[C@H]3C4)cc12` (mixture of isomers) [US20230312550, Example 210] the koff was 9.8e-05 s⁻¹ and the kon was 3.8e+06 M⁻¹ s⁻¹.

With `C[C@H]1CCN(c2ccc3nccc(C(=O)NCC(=O)N4CSC[C@H]4C#N)c3c2)C1=O` (single isomer, unassigned) [US20230312550, Example 201] the koff was 0.0001 s⁻¹ and the kon was 1.8e+06 M⁻¹ s⁻¹.

For `N#C[C@@H]1CSCN1C(=O)CNC(=O)c1ccnc2ccc(N3CCCCO3)cc12` [US20230312550, Example 1], the koff was 0.00014 s⁻¹ and the kon was 730000 M⁻¹ s⁻¹.

Work on `N#C[C@@H]1CSCN1C(=O)CNC(=O)c1c(F)cnc2ccc(N3CCOCC3)cc12` [US20230312550, Example 2] yielded a koff of 0.0038 s⁻¹ and a kon of 410000 M⁻¹ s⁻¹.

With `N#C[C@@H]1CSCN1C(=O)CNC(=O)c1ccnc2ccc(N3CCSCC3)cc12` [US20230312550, Example 3] the koff was 0.0004 s⁻¹ and the kon was 4.1e+06 M⁻¹ s⁻¹.

Molecule `N#C[C@@H]1CSCN1C(=O)CNC(=O)c1ccnc2ccc(N3CCOC(F)(F)C3)cc12` [US20230312550, Example 4] has a koff of 9.4e-05 s⁻¹ and a kon of 1.2e+06 M⁻¹ s⁻¹.

For `N#C[C@@H]1CSCN1C(=O)CNC(=O)c1ccnc2ccc(N3CCOc4ccccc43)cc12` [US20230312550, Example 6], the koff was 18 s⁻¹.

In the case of `C[C@@H]1CN(c2ccc3nccc(C(=O)NCC(=O)N4CSC[C@H]4C#N)c3c2)C[C@H](C)[C@@H]1O` [US20230312550, Example 7], the koff is reported as 7.5e-05 s⁻¹ and the kon is reported as 740000 M⁻¹ s⁻¹.

For `Cc1cc2nccc(C(=O)NCC(=O)N3CSC[C@H]3C#N)c2cc1N1CCOCC1` [US20230312550, Example 10], the koff was 5.6e-05 s⁻¹ and the kon was 370000 M⁻¹ s⁻¹.

`CC1(C)CCN(c2ccc3nccc(C(=O)NCC(=O)N4CSC[C@H]4C#N)c3c2)C1=O` [US20230312550, Example 12] gave a koff of 6.4e-05 s⁻¹ and a kon of 1.9e+06 M⁻¹ s⁻¹.

Molecule `CC1(C)CN(c2ccc3nccc(C(=O)NCC(=O)N4CSC[C@H]4C#N)c3c2)C(=O)O1` [US20230312550, Example 13] has a koff of 7.6e-05 s⁻¹ and a kon of 9.2e+06 M⁻¹ s⁻¹.

Molecule `N#C[C@@H]1CSCN1C(=O)CNC(=O)c1ccnc2ccc(N3CCCCC3=O)cc12` [US20230312550, Example 14] has a koff of 6.4e-05 s⁻¹ and a kon of 1.3e+06 M⁻¹ s⁻¹.

In the case of `CC1(C)CCCN(c2ccc3nccc(C(=O)NCC(=O)N4CSC[C@H]4C#N)c3c2)C1=O` [US20230312550, Example 15], the koff is reported as 4.6e-05 s⁻¹ and the kon is reported as 490000 M⁻¹ s⁻¹.

Molecule `CC1(C)OCCN(c2ccc3nccc(C(=O)NCC(=O)N4CSC[C@H]4C#N)c3c2)C1=O` [US20230312550, Example 16] has a koff of 4.1e-05 s⁻¹ and a kon of 740000 M⁻¹ s⁻¹.

`N#C[C@@H]1CSCN1C(=O)CNC(=O)c1ccnc2ccc(N3CC4(CCC4)C3)cc12` [US20230312550, Example 17] gave a koff of 0.00012 s⁻¹ and a kon of 8.3e+06 M⁻¹ s⁻¹.

For `CC1(C)COC12CN(c1ccc3nccc(C(=O)NCC(=O)N4CSC[C@H]4C#N)c3c1)C2` [US20230312550, Example 18], the koff was 5.9e-05 s⁻¹ and the kon was 1.4e+06 M⁻¹ s⁻¹.

For `N#C[C@@H]1CSCN1C(=O)CNC(=O)c1ccnc2ccc(N3CCC34CCC4)cc12` [US20230312550, Example 19], the koff was 6.6e-05 s⁻¹ and the kon was 430000 M⁻¹ s⁻¹.

Work on `CC1(C)CCN1c1ccc2nccc(C(=O)NCC(=O)N3CSC[C@H]3C#N)c2c1` [US20230312550, Example 20] yielded a koff of 0.00012 s⁻¹ and a kon of 4.2e+06 M⁻¹ s⁻¹.

In the case of `N#C[C@@H]1CSCN1C(=O)CNC(=O)c1ccnc2ccc(N3CC(F)C3)cc12` [US20230312550, Example 21], the koff is reported as 0.0002 s⁻¹ and the kon is reported as 3e+06 M⁻¹ s⁻¹.

Work on `N#C[C@@H]1CSCN1C(=O)CNC(=O)c1ccnc2ccc(N3CC(F)(F)C3)cc12` [US20230312550, Example 23] yielded a koff of 0.00018 s⁻¹ and a kon of 2.1e+06 M⁻¹ s⁻¹.

In the case of `CC1CN(c2ccc3nccc(C(=O)NCC(=O)N4CSC[C@H]4C#N)c3c2)C1` [US20230312550, Example 25], the koff is reported as 0.00011 s⁻¹ and the kon is reported as 1.4e+06 M⁻¹ s⁻¹.

`N#C[C@@H]1CSCN1C(=O)CNC(=O)c1ccnc2ccc(N3CC(C(F)(F)F)C3)cc12` [US20230312550, Example 26] gave a koff of 6.5e-05 s⁻¹ and a kon of 1.3e+06 M⁻¹ s⁻¹.

In the case of `N#C[C@@H]1CSCN1C(=O)CNC(=O)c1ccnc2ccc(N3CC(C(F)F)C3)cc12` [US20230312550, Example 28], the koff is reported as 0.00011 s⁻¹ and the kon is reported as 1.1e+06 M⁻¹ s⁻¹.

Work on `COCC1(C)CN(c2ccc3nccc(C(=O)NCC(=O)N4CSC[C@H]4C#N)c3c2)C1` [US20230312550, Example 29] yielded a koff of 6.1e-05 s⁻¹ and a kon of 1.1e+06 M⁻¹ s⁻¹.

Molecule `CO[C@@H]1CN(c2ccc3nccc(C(=O)NCC(=O)N4CSC[C@H]4C#N)c3c2)[C@H]1C` [US20230312550, Example 30] has a koff of 0.00022 s⁻¹ and a kon of 5.2e+06 M⁻¹ s⁻¹.

Work on `N#C[C@@H]1CSCN1C(=O)CNC(=O)c1ccnc2ccc(N3CC(F)(C4CC4)C3)cc12` [US20230312550, Example 31] yielded a koff of 0.00024 s⁻¹ and a kon of 9.7e+06 M⁻¹ s⁻¹.

Work on `N#C[C@@H]1CSCN1C(=O)CNC(=O)c1ccnc2ccc(N3CCCCC3)cc12` [US20230312550, Example 32] yielded a koff of 2.9e-05 s⁻¹ and a kon of 1.3e+06 M⁻¹ s⁻¹.

`CC1(C)CCN(c2ccc3nccc(C(=O)NCC(=O)N4CSC[C@H]4C#N)c3c2)CC1` [US20230312550, Example 33] showed a koff of 5.2e-05 s⁻¹ and a kon of 1.1e+06 M⁻¹ s⁻¹.

For `CC1(F)CCN(c2ccc3nccc(C(=O)NCC(=O)N4CSC[C@H]4C#N)c3c2)CC1` [US20230312550, Example 34], the koff was 8.2e-05 s⁻¹ and the kon was 2.2e+06 M⁻¹ s⁻¹.

Work on `N#C[C@@H]1CSCN1C(=O)CNC(=O)c1ccnc2ccc(N3CCC(F)(F)CC3)cc12` [US20230312550, Example 35] yielded a koff of 0.0001 s⁻¹ and a kon of 900000 M⁻¹ s⁻¹.

`N#C[C@@H]1CSCN1C(=O)CNC(=O)c1ccnc2ccc(N3CCCC(F)(F)C3)cc12` [US20230312550, Example 36] gave a koff of 9e-05 s⁻¹ and a kon of 3e+06 M⁻¹ s⁻¹.

`CC1(CF)CCN(c2ccc3nccc(C(=O)NCC(=O)N4CSC[C@H]4C#N)c3c2)CC1` [US20230312550, Example 37] gave a koff of 3e-05 s⁻¹ and a kon of 1e+06 M⁻¹ s⁻¹.

In the case of `CC1(C)CN(c2ccc3nccc(C(=O)NCC(=O)N4CSC[C@H]4C#N)c3c2)CCC1(F)F` [US20230312550, Example 38], the koff is reported as 7.8e-05 s⁻¹ and the kon is reported as 520000 M⁻¹ s⁻¹.

`N#C[C@@H]1CSCN1C(=O)CNC(=O)c1ccnc2ccc(N3CCC(C(F)(F)F)CC3)cc12` [US20230312550, Example 39] showed a koff of 0.00016 s⁻¹ and a kon of 4.9e+06 M⁻¹ s⁻¹.

For `CO[C@H]1CCCN(c2ccc3nccc(C(=O)NCC(=O)N4CSC[C@H]4C#N)c3c2)C1` [US20230312550, Example 41], the koff was 6.4e-05 s⁻¹ and the kon was 680000 M⁻¹ s⁻¹.

In the case of `COC1(C)CCN(c2ccc3nccc(C(=O)NCC(=O)N4CSC[C@H]4C#N)c3c2)CC1` [US20230312550, Example 42], the koff is reported as 5.4e-05 s⁻¹ and the kon is reported as 1.8e+06 M⁻¹ s⁻¹.

`CC(C)OC1CCN(c2ccc3nccc(C(=O)NCC(=O)N4CSC[C@H]4C#N)c3c2)CC1` [US20230312550, Example 43] gave a koff of 1.9e-05 s⁻¹ and a kon of 3.2e+06 M⁻¹ s⁻¹.

`C[C@H]1CC(F)(F)CCN1c1ccc2nccc(C(=O)NCC(=O)N3CSC[C@H]3C#N)c2c1` [US20230312550, Example 44] showed a koff of 7.2e-05 s⁻¹ and a kon of 1.7e+06 M⁻¹ s⁻¹.

For `N#C[C@@H]1CSCN1C(=O)CNC(=O)c1ccnc2ccc(N3CCCC[C@H]3CF)cc12` [US20230312550, Example 45], the koff was 0.00018 s⁻¹ and the kon was 5.4e+06 M⁻¹ s⁻¹.

With `N#C[C@@H]1CSCN1C(=O)CNC(=O)c1ccnc2ccc(N3CCCC4(CC4)C3)cc12` [US20230312550, Example 46] the koff was 6.2e-05 s⁻¹ and the kon was 3e+06 M⁻¹ s⁻¹.

`CC1(C)CCN(c2ccc3nccc(C(=O)NCC(=O)N4CSC[C@H]4C#N)c3c2)C1` [US20230312550, Example 48] was tested, and the koff was 8.9e-05 s⁻¹ and the kon was 1.4e+06 M⁻¹ s⁻¹.

In the case of `N#C[C@@H]1CSCN1C(=O)CNC(=O)c1ccnc2ccc(N3CCC4(CC4)C3)cc12` [US20230312550, Example 49], the koff is reported as 0.00017 s⁻¹ and the kon is reported as 8.8e+06 M⁻¹ s⁻¹.

Molecule `N#C[C@@H]1CSCN1C(=O)CNC(=O)c1ccnc2ccc(N3CC[C@H](F)C3)cc12` [US20230312550, Example 51] has a koff of 0.00011 s⁻¹ and a kon of 5.6e+06 M⁻¹ s⁻¹.

`N#C[C@@H]1CSCN1C(=O)CNC(=O)c1ccnc2ccc(N3CC[C@@H](F)C3)cc12` [US20230312550, Example 52] gave a koff of 0.00019 s⁻¹ and a kon of 6.8e+06 M⁻¹ s⁻¹.

In the case of `N#C[C@@H]1CSCN1C(=O)CNC(=O)c1ccnc2ccc(N3CC4CCCC4C3)cc12` (stereo partly specified) [US20230312550, Example 53], the koff is reported as 5e-05 s⁻¹ and the kon is reported as 680000 M⁻¹ s⁻¹.

With `C[C@H]1CCN(c2ccc3nccc(C(=O)NCC(=O)N4CSC[C@H]4C#N)c3c2)C1` [US20230312550, Example 54] the koff was 0.00023 s⁻¹ and the kon was 6.2e+06 M⁻¹ s⁻¹.

In the case of `C[C@@H]1CCN(c2ccc3nccc(C(=O)NCC(=O)N4CSC[C@H]4C#N)c3c2)C1` [US20230312550, Example 55], the koff is reported as 0.00025 s⁻¹ and the kon is reported as 6.7e+06 M⁻¹ s⁻¹.

For `N#C[C@@H]1CSCN1C(=O)CNC(=O)c1ccnc2ccc(N3CCC[C@H]3C(F)(F)F)cc12` [US20230312550, Example 56], the koff was 0.00011 s⁻¹ and the kon was 540000 M⁻¹ s⁻¹.

`CC1(C)CCCN1c1ccc2nccc(C(=O)NCC(=O)N3CSC[C@H]3C#N)c2c1` [US20230312550, Example 57] was tested, and the koff was 0.00018 s⁻¹ and the kon was 8e+06 M⁻¹ s⁻¹.

`N#C[C@@H]1CSCN1C(=O)CNC(=O)c1ccnc2ccc(N3CC4(CC4)C[C@@H]3CF)cc12` [US20230312550, Example 58] was tested, and the koff was 0.091 s⁻¹ and the kon was 8.8e+09 M⁻¹ s⁻¹.
